Assay results published in patent publication US7348329B2, “Therapeutic agent for keratoconjunctival disorder” (Santen Pharmaceutical Co., Ltd., priority 2003, dated 2008).

Tested on: corneal damage in corneal disorder models
Experiment: Test for therapeutic effect on corneal damage (corneal disorder model, exorbital lacrimal gland removed)
Assay type: in vivo, male SD rats
Conditions: for Effect on corneal damage (in words): male SD rat corneal disorder model; for Effect on corneal damage (in words) / Improvement ratio (%): 0.02% eye drops 6 times a day for 7 days; for Improvement ratio (%) / Mean value of total scores (fluorescein staining of upper, middle and lower parts of the cornea): male SD rat; for Improvement ratio (%): {(control)-(compound)}/{(control)-(normal eye)}x100, control = 0%; for Mean value of total scores (fluorescein staining of upper, middle and lower parts of the cornea): 0.02% in physiological saline instilled into both eyes 6 times a day for 7 days, scored 7 days after start, mean of 8 eyes, each part scored 0-3
Protocol: Test for Therapeutic Effect on Corneal Damage
Using male SD rats, in accordance with the method of Fujihara et al. (Invest. Ophthalmol. Vis. Sci. 42 (1): 96-100 (2001)), corneal disorder models were produced. After the production of the corneal disorder models, the improvement ratio of a corneal damage was evaluated according to the method of Murakami et al. (journal of the eye 21 (1): 87-90 (2004))
A male SD rat was systemically anesthetized by an administration of Nembutal. Subsequently the exorbital lacrimal gland was removed and a corneal damage was induced over a period of 2 months.
Then, 5-[4-[[3-methyl-4-oxo-3,4-dihydro-2-quinazolinyl]methoxy]phenylmethyl]thiazolidine-2,4-dione (Compound A) or N-[(4-methoxyphenoxy)carbonyl]-N-[[4-[2-(5-methyl-2-phenyl-4-oxazolyl)ethoxy]phenyl]methyl]glycine (Compound B) was administered as follows.
A physiological saline solution of Compound A (0.02%) was instilled into both eyes 6 times a day for 7 days (one group consisting of 4 animals, 8 eyes).
A physiological saline solution of Compound B (0.02%) was instilled into both eyes 6 times a day for 7 days (one group consisting of 4 animals, 8 eyes).
In a control group, physiological saline was instilled into both eyes 6 times a day for 7 days (one group consisting of 4 animals, 8 eyes).
Seven days after the start of instillation, the damaged parts of the cornea were stained with fluorescein. For each of the upper, middle and lower parts of the cornea, the degree of fluorescein staining was evaluated by scoring according to the criteria shown below and the mean value of the total scores for each of the above-mentioned parts was calculated.
Further, the mean value of the total scores for the normal eye was also calculated.
• 0: No punctate staining • 1: Scattered staining (punctate, separated staining) • 2: Moderate staining(a part of punctate staining being adjacent) • 3: Heavy staining (punctate, barely separated staining) (Results)
By taking the mean value of the total scores for the control group (physiological saline) as a reference (improvement ratio: 0%), the calculation was carried out according to the calculation formula shown below. Each of the improvement ratios for the Compound A administered group and the Compound B administered group are shown in Table 1 and Table 2. The mean value of the scores is a mean of those of 8 cases, respectively. Improvement ratio (%)={(control)−(the present compound)}/damage degree×100 Damage degree=(control)−(normal eye)

SMILES	Effect on corneal damage (in words)	Improvement ratio (%)	Mean value of total scores (fluorescein staining of upper, middle and lower parts of the cornea)
COc1ccc(OC(=O)N(CC(=O)O)Cc2ccc(OCCc3nc(-c4ccccc4)oc3C)cc2)cc1 [Compound B, N-[(4-methoxyphenoxy)carbonyl]-N-[[4-[2-(5-methyl-2-phenyl-4-oxazolyl)ethoxy]phenyl]methyl]glycine]	significantly improve a corneal damage	42.3	5.2
Cn1c(COc2ccc(CC3SC(=O)NC3=O)cc2)nc2ccccc2c1=O (stereo not drawn) [Compound A, 5-[4-[[3-methyl-4-oxo-3,4-dihydro-2-quinazolinyl]methoxy]phenylmethyl]thiazolidine-2,4-dione]	significantly improve a corneal damage	40.0	4.8
